In patent US11830582B2, “Methods of designing novel antibody mimetics for use in detecting antigens and as therapeutic agents” (UNIVERSITY OF MIAMI, priority 2018, dated 2023):

Assays:
Type in all cases: binding
intact ZIKV particles [1] = assay: Direct ELISA vs intact ZIKV particles; conditions: for LOD: LOD=SB+3×SDB, interpolated from calibration curve; for FPLR maximum / FPLR minimum: delta absorbance 450 nm; for Long-term stability: dose-response performance of the assay; for FPLR C50 / FPLR slope: four-parameter logistic fit; for FPLR Dynamic Range: optimized peptide concentration of Table 5 (0.5-20 μM; 4G2 1 μg/ml); for dynamic range of dose-response curve (orders of magnitude): in words
Protocol: Before biotin functionalization, peptides stock solution was reduced using trialkylphosphine (TCEP) from ThermoFisher Scientific (www.thermofisher.com) and after 1 h the gel was removed using TCEP gel spin separation columns (ThermoFisher Scientific). Then, 2-fold molar excess of EZ-Link™ Maleimide-PEG2-Biotin (ThermoFisher Scientific) was added to purified peptide solution and incubated for 1 h. […] Therefore, no further separation was carried out.
(§1) To optimize all parameters of the direct ELISA protocol, Pierce 96-Well Polystyrene Plates, (ThermoFisher Scientific) were coated overnight at 4° C. with different concentrations of intact virus particles (ZIKV or DENV). The intact virus particles were diluted using 100 mM NaHCO3, pH 9.6, and aliquots of 100 μL were dispensed into each well of the plate using a multichannel pipette. This buffer pH assured a strong hydrophobic binding interaction between polystyrene and virus particles.
(§2) Intact particles both ZIKV and DENV were provided by Dr. Watkins group (University of Miami, Dep. of Pathology). The samples were controlled and counted by focus forming assay and RT-PCR, the details were reported in a previous work (Magnani et al., 2017). The Intact particles of ZIKV were inactivated using gamma irradiation. Assay biohazardous steps were carried out according to standard safety procedures.
(§3) After coating the plates overnight, the intact virus particles were removed by washing five times with the washing buffer (PBST) 10 mM PBS pH 7.4, 0.1% Tween-20, using an automated plate washer (MultiWash+, Molecular Devices, Sunnyvale, Calif.). Then, the plates were blocked with 200 μL of blocking buffers while shaking at 300 rpm at room temperature. The blocking buffers used were: Pierce™ Protein-Free (PBS) Blocking Buffer (PF), Blocker™ BLOTTO in TBS, SuperBlock™ Blocking Buffer, Blocker™ BSA (1×) in PBS. All blocking buffer were from ThermoFisher Scientific.
(§4) After 2 h the blocking buffers were removed using the same washing procedure mentioned above. 100 μL-aliquots of several dilutions of peptides biotinylated in 10 mM PBS pH 7.4 were placed in each well and incubated for 2 h while shaking at 300 rpm at room temperature. After the incubation, the unreacted peptides were removed by using the plate washer with the same settings. Then, 100 μL-aliquots of streptavidin-HRP (ThermoFisher Scientific) at a concentration of 20 ng/mL were added into each well and incubated for 30 min at room temperature without shaking. After the incubation, excess streptavidin-HRP was removed and the wells were washed with the plate washer five times using the washing buffer. Finally, 100 μL-aliquots of the Ultra TMB-ELISA Substrate Solution (ThermoFisher Scientific) were added and after 10 min the reaction was stopped by adding 100 μL aliquots of the TMB stop solution (SeraCare). The emission (450 nm) was read using a microplate reader (Clariostar Optima; BMG Labtech, Ortenberg, Germany).
The corresponding blank signals in triplicates were obtained by using all reagents without peptides. The blank signal was then subtracted to the average absorbance values for triplicate wells of each test.
The eight clamp peptides and the four mono-arm peptides selected, were tested vs intact ZIKV particles by using a direct ELISA. The peptides were biotinylated by using the maleimide-PEG2-biotin reagent that reacts with the sulfhydryl group of the cysteine efficiently and specifically by forming a stable thioether bond. The antibody 4G2 hybridoma mouse IgG2a was used as the reference and employed in combination with an anti-mouse IgG conjugated to HRP.
All analytical parameters involved in the development of ELISA were optimized by using 96-well plates coated with triplicate 10-fold serial dilutions of intact ZIKV particles.
Thus, the peptide concentrations reported in Table 5 were used to estimate the dynamic range and the LOD of the assay by using 10-fold serial dilutions of intact ZIKV particles from 10^^1 to 10^^8 copies/mL. […]

[2] = tested on: intact DENV particles (DENV-1, -2 and -3); assay: Cross-reactivity direct ELISA vs DENV serotypes
Protocol: as §1, §2, §3, §4
The cross-reactivity among Flaviviruses is a key parameter to be tested for this assay. […]

intact ZIKV particles [3] = assay: Direct ELISA matrix effect in urine and serum; conditions: urine 1:1, serum 1:10 diluted; 10^5 and 10^6 copies/mL ZIKV
Protocol: Usually, the presence of ZIKV in affected bodies is detected in biological fluids. Therefore, the analytical sensitivity of the selected peptides was tested in two biological matrices, namely, urine and serum. The matrix effect was investigated to understand how real biological fluids could modify the binding efficiency of the peptides.
FIG. 4 depicts the ELISA data using solutions of peptides with or without the urine and serum obtained coating clear 96-well plates with 10^^5 and 10^^6 copies/mL of intact ZIKV particles. Urine and serum were 1:1 and 1:10 diluted, respectively, with a concentrated peptide PBS solution (10 mM PBS, pH 7.4) to obtain a peptide final concentration of 0.5 μM for C3 and C6, 5 μM for C7 and 20 μM for mono-arm peptides (P2 and X1).

[4] = all DENV serotypes, 10^5 copies/mL coating

Row | Substance | LOD (intact ZIKV particles [1]) | FPLR maximum (intact ZIKV particles [1]) | FPLR minimum (intact ZIKV particles [1]) | Long-term stability (intact ZIKV particles [1]) | FPLR C50 (intact ZIKV particles [1]) | FPLR slope (intact ZIKV particles [1]) | FPLR Dynamic Range (intact ZIKV particles [1]) | dynamic range of dose-response curve (orders of magnitude) (intact ZIKV particles [1]) | signal decrease DENV vs ZIKV [2, 4] | ELISA performance in urine and serum (intact ZIKV particles [3]) | signal decrease DENV vs ZIKV ([2]; DENV-2, 10^5 copies/mL coating) | signal decrease DENV vs ZIKV ([2]; DENV-3, 10^5 copies/mL coating)
1 | C5: clamp peptide AGRRP (20) - bridge GPGCCGPG (32) - SWPGQ (24) (AGRRPGPGCCGPGSWPGQ; C5 Binds to Active Site 2; Bridge peptide; C1 Binds to Active Site 1) | 5.8 log[ZIKV], copies/mL | 0.17 ΔA | 0.01 ΔA | >1 Month | 6.4 log[ZIKV], copies/mL | 25.6 | 6-7 log[ZIKV], copies/mL | – | – | – | – | –
2 | C8: clamp peptide MDSPIK (22) - bridge GPGCCGPG (32) - KTDAYS (27) (MDSPIKGPGCCGPGKTDAYS; C7 Binds to Active Site 2; Bridge peptide; C4 Binds to Active Site 1) | 4.7 log[ZIKV], copies/mL | 0.82 ΔA | 0.03 ΔA | >1 Month | 6.2 log[ZIKV], copies/mL | 33.9 | 5-7 log[ZIKV], copies/mL | – | – | – | – | –
3 | C2: clamp peptide WPHTQ (16) - bridge GPGCCGPG (32) - LRGHA (25) (WPHTQGPGCCGPGLRGHA; C1 Binds to Active Site 2; Bridge peptide; C2 Binds to Active Site 1) | 4.5 log[ZIKV], copies/mL | 0.55 ΔA | 0.05 ΔA | >1 Month | 6.2 log[ZIKV], copies/mL | 25.4 | 5-7 log[ZIKV], copies/mL | – | – | – | – | –
4 | C3: clamp peptide WPWIGT (18) - bridge GPGCCGPG (32) - KRNATP (26) (WPWIGTGPGCCGPGKRNATP; C3 Binds to Active Site 2; Bridge peptide; C3 Binds to Active Site 1) | 3.5 log[ZIKV], copies/mL | 0.67 ΔA | 0.05 ΔA | >1 Month | 5.3 log[ZIKV], copies/mL | 8.7 | 4-7 log[ZIKV], copies/mL | three-order of magnitude | around 70% | better performance in urine than serum | – | –
5 | C7: clamp peptide MDSPIK (22) - bridge GPGCCGPG (32) - KRNATP (26) (MDSPIKGPGCCGPGKRNATP; C7 Binds to Active Site 2; Bridge peptide; C3 Binds to Active Site 1) | 3.7 log[ZIKV], copies/mL | 0.95 ΔA | 0.01 ΔA | >1 Month | 5.8 log[ZIKV], copies/mL | 5.3 | 4-7 log[ZIKV], copies/mL | three-order of magnitude | around 70% | best performance among the three clamp peptides | – | –
6 | C6: clamp peptide AGRRP (20) - bridge GPGCCGPG (32) - LRGHA (25) (AGRRPGPGCCGPGLRGHA; C5 Binds to Active Site 2; Bridge peptide; C2 Binds to Active Site 1) | 3.5 log[ZIKV], copies/mL | 0.53 ΔA | 0.05 ΔA | >1 Month | 5.2 log[ZIKV], copies/mL | 10.1 | 4-7 log[ZIKV], copies/mL | three-order of magnitude | – | strong decrease in the signal | 45% | 55%
7 | C-KRNATP (CKRNATP; X1) [mono-arm hexapeptide with N-terminal cysteine] | 4.8 log[ZIKV], copies/mL | 0.98 ΔA | 0.03 ΔA | >1 Month | 6.1 log[ZIKV], copies/mL | 20.8 | 5-7 log[ZIKV], copies/mL | – | – | – | – | –
8 | C-KTDAYS (CKTDAYS; X2) [mono-arm hexapeptide with N-terminal cysteine] | 5.8 log[ZIKV], copies/mL | 0.91 ΔA | 0.01 ΔA | >1 Month | 6.1 log[ZIKV], copies/mL | 27.7 | 6-8 log[ZIKV], copies/mL | – | – | – | – | –
9 | C-SWPGQ (CSWPGQ; P1) [mono-arm pentapeptide with N-terminal cysteine] | 6.8 log[ZIKV], copies/mL | – | – | >1 Month | – | – | 7-8 log[ZIKV], copies/mL | one order of magnitude | – | – | – | –
10 | C-LRGHA (CLRGHA; P2) [mono-arm pentapeptide with N-terminal cysteine] | 4.5 log[ZIKV], copies/mL | 0.94 ΔA | 0.04 ΔA | >1 Month | 6.2 log[ZIKV], copies/mL | 19.9 | 5-7 log[ZIKV], copies/mL | – | – | – | – | –
11 | C4: clamp peptide WPWIGT (18) - bridge GPGCCGPG (32) - KTDAYS (27) (WPWIGTGPGCCGPGKTDAYS; C3 Binds to Active Site 2; Bridge peptide; C4 Binds to Active Site 1) | 5.7 log[ZIKV], copies/mL | 0.40 ΔA | 0.02 ΔA | >1 Month | 6.3 log[ZIKV], copies/mL | 32.8 | 6-7 log[ZIKV], copies/mL | – | – | – | – | –
